Drawing on patent US8129371B2, “Thienopyrimidine and pyrazolopyrimidine compounds and their use as mTOR kinase and PI3 kinase inhibitors” (Wyeth LLC, priority 2007, dated 2012), this text covers IC50 for 18 molecules.

One assay relates to breast line MDA468. In words: In vitro cell culture growth assay (MTS), MDA468. Format: cell-based. The conditions noted are these: Homo sapiens, 72 h, MDA468 cells, three days after drug treatment. The method in brief: (§1)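 The readout was MTS dye metabolism at 490 nm, taken after 3-day drug exposure that began the day after seeding. Growth was expressed as percent of vehicle-treated wells in the same plate.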

Assay [1] addresses T1, PI3K (Homo sapiens, UniProt P42336).
T1 construct: PI3 Kinase α IC50; other: PI3 Kinase α; other: PI3 Kinase α isoform, fluorescence polarization
In words: Fluorescence polarization assay for PI3K. The format is biochemical. The essentials: (§2)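 PI3K was preincubated with compound (final DMSO 1%), and the reaction was started with PIP2/ATP substrate and run 30–60 min. It was stopped with a detector mix giving 10 nM red probe and 70 nM GST-GRP.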
For orientation: Polarisation of emitted light reports the rotation of a fluorescent probe.

Assay [2] deals with T2, PI3K (Homo sapiens, UniProt P48736).
T2 construct: PI3 Kinase γ IC50; other: PI3 Kinase γ; other: PI3 Kinase γ isoform, fluorescence polarization
T2 sequence (P48736 whole entry, canonical isoform): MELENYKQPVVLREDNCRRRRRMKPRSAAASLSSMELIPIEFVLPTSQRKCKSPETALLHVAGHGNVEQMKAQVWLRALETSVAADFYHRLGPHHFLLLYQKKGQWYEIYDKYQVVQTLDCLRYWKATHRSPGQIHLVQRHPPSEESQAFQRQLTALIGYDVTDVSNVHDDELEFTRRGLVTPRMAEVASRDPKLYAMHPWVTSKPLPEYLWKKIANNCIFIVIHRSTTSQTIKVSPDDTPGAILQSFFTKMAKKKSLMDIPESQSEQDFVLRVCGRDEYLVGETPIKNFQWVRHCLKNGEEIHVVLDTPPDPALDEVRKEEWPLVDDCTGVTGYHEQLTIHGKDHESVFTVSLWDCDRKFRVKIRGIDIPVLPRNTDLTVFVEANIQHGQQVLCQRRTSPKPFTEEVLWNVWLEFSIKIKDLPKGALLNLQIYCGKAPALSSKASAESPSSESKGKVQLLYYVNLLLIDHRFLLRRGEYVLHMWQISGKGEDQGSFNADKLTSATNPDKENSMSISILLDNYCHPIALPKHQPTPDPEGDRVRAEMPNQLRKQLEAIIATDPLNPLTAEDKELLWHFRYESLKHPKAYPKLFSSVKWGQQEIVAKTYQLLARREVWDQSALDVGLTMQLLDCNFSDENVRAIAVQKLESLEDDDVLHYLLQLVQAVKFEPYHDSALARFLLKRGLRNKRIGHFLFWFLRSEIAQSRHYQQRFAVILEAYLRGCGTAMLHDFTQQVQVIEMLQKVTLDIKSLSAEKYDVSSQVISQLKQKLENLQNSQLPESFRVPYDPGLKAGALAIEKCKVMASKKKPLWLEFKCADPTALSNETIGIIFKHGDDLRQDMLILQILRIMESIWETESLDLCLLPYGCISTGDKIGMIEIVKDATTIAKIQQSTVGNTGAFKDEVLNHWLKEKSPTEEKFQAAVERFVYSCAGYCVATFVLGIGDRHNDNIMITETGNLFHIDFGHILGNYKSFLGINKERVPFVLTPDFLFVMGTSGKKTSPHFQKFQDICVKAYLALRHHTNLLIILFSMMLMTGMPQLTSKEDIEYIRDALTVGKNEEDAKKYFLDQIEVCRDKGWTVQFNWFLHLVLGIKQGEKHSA
In words: Fluorescence polarization assay for PI3K. Format: biochemical. The method in brief: as §2

The target of another assay is T3, Human mTOR (FLAG-TOR) (Homo sapiens, UniProt P42345).
T3 construct: FLAG
Kind of assay: Human mTOR kinase assay with purified enzyme, DELFIA format. The format is biochemical. The method in brief:
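Purified FLAG-mTOR in HEPES pH 7.4 buffer with 10 mM MnCl2 was preincubated with inhibitor and reacted 2 h at room temperature with His6-S6K substrate, then stopped with EDTA/EGTA. Phospho-T389 S6K detected by DELFIA with Eu-labelled antibody (40 ng/mL) after plate capture; inhibition computed from signal.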

Another assay relates to prostate line LNCap. Kind of assay: In vitro cell culture growth assay (MTS), LNCap. Format: cell-based. The settings on record: Homo sapiens, 72 h, LNCap cells, three days after drug treatment. The essentials: as §1
[3] abbreviates: PI3 Kinase α isoform, fluorescence polarization, read-out: PI3 Kinase α IC50.
The mark [4] stands for this setting: PI3 Kinase γ isoform, fluorescence polarization, read-out: PI3 Kinase γ IC50.
Where [5] appears, read: purified human mTOR enzyme, DELFIA format.
Where [6] appears, read: PI3 Kinase α, read-out: PI3 Kinase α IC50.
[7] abbreviates: PI3 Kinase γ, read-out: PI3 Kinase γ IC50.

pIC50: −log10 of the molar value. Like-named read-outs stand apart in the source and are kept apart here.

T1 sequence (P42336 whole entry, canonical isoform): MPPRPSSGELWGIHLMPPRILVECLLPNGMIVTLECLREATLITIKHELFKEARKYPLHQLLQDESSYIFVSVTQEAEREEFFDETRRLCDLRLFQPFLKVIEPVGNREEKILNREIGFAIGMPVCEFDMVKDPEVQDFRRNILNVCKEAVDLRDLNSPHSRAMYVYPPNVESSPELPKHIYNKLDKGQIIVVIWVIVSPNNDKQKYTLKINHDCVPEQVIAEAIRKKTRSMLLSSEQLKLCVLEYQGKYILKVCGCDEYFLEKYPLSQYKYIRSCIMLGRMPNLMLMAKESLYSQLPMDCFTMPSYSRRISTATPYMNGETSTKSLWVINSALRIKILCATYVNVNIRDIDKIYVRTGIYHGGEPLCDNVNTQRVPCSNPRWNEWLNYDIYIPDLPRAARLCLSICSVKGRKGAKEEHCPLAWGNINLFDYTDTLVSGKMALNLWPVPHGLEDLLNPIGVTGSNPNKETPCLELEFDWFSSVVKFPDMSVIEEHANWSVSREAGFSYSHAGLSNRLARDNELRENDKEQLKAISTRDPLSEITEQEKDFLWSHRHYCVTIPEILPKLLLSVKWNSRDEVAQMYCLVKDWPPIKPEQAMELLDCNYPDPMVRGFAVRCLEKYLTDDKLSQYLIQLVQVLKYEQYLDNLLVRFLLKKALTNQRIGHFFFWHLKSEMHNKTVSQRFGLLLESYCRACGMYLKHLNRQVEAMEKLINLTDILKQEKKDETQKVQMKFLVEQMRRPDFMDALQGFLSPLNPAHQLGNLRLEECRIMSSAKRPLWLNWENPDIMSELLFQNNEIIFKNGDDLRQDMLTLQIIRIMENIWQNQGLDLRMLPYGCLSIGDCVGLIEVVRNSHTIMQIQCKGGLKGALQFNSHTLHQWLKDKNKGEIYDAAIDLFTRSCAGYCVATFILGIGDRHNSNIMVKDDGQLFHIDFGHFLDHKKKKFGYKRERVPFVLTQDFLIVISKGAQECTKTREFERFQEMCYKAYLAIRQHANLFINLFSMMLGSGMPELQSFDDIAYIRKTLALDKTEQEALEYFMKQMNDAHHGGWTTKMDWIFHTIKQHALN

The pIC50 is the IC50 on a negative log10 scale, so that one unit is a factor of ten. Consider `COC(=O)N1CCC(n2ncc3c(N4C5CCC4COC5)nc(-c4ccc(NC(=O)NC5CC5)cc4)nc32)CC1` [Example 359, methyl 4-[6-{4-[(cyclopropylcarbamoyl)amino]phenyl}-4-(3-oxa-8-azabicyclo[3.2.1]oct-8-yl)-1H-pyrazolo[3,4-d]pyrimidin-1-yl]piperidine-1-carboxylate], for which the negative logarithm of the IC50 (pIC50) was 7.44 in the assay on breast line MDA468; 5.25 at PI3K [1] (setting [3]); 5.11 on PI3K [2] (setting [4]); 9.15 on Human mTOR (FLAG-TOR) (setting [5]); 8.22 in the assay on prostate line LNCap (LNCaP).
For the molecule `Oc1cccc(-c2nc(N3C4CCC3COC4)c3cnn(-c4ccccc4)c3n2)c1` [Example 378, 3-[4-(3-oxa-8-azabicyclo[3.2.1]oct-8-yl)-1-phenyl-1H-pyrazolo[3,4-d]pyrimidin-6-yl]phenol], the pIC50 is 5.24 in the assay with breast line MDA468; 6.39 at PI3K [1] (setting [3]); 5.71 at PI3K [2] (setting [4]); 7.94 against Human mTOR (FLAG-TOR) (setting [5]); 6.09 in the assay with prostate line LNCap (LNCaP).
In the case of `CCNC(=O)Nc1ccc(-c2nc(N3CC4CCC(C3)O4)c3cnn(Cc4ccccc4)c3n2)cc1` [Example 78, 1-{4-[1-benzyl-4-(8-oxa-3-azabicyclo[3.2.1]oct-3-yl)-1H-pyrazolo[3,4-d]pyrimidin-6-yl]phenyl}-3-ethylurea], the pIC50 in the assay with breast line MDA468 was 5.98; on PI3K [1] (setting [6]), < 5.00; at PI3K [2] (setting [7]), < 5.00; on Human mTOR (FLAG-TOR) it was 8.59; in the assay with prostate line LNCap (LNCaP), 6.77.
Regarding `CNC(=O)Nc1ccc(-c2nc(N3CC4CCC(C3)O4)c3cnn(CCC#N)c3n2)cc1` [Example 214, 1-{4-[1-(2-cyanoethyl)-4-(8-oxa-3-azabicyclo[3.2.1]oct-3-yl)-1H-pyrazolo[3,4-d]pyrimidin-6-yl]phenyl}-3-methylurea], the pIC50 in the assay with breast line MDA468 was 6.24; on PI3K [1] (setting [6]), 6.14; on PI3K [2] (setting [7]), < 5.00; against Human mTOR (FLAG-TOR), 8.82; in the assay with prostate line LNCap (LNCaP), 6.68.
On the same counts, the results for `CCn1ncc2c(N3CC4CCC(C3)O4)nc(-c3ccc(NC(=O)Nc4ccccc4)cc3)nc21` [Example 46, 1-{4-[1-ethyl-4-(8-oxa-3-azabicyclo[3.2.1]oct-3-yl)-1H-pyrazolo[3,4-d]pyrimidin-6-yl]phenyl}-3-phenylurea] are 7.92, 7.17, 5.79, 9.52 and 9.10.
For `CCOC(=O)N1CCC(n2ncc3c(N4CC5CCC(C4)O5)nc(-c4ccc(NC(=O)Nc5ccccc5)cc4)nc32)CC1` [Example 33, ethyl 4-[4-(8-oxa-3-azabicyclo[3.2.1]oct-3-yl)-6-{4-[(phenylcarbamoyl)amino]phenyl}-1H-pyrazolo[3,4-d]pyrimidin-1-yl]piperidine-1-carboxylate], the negative logarithm of the IC50 (pIC50) was 7.74 in the assay on breast line MDA468; 6.67 at PI3K [1] (setting [6]); 5.37 on PI3K [2] (setting [7]); 9.44 against Human mTOR (FLAG-TOR); 9.05 in the assay with prostate line LNCap (LNCaP).
On the same counts, the results for `CCOC(=O)N1CCC(n2ncc3c(N4CC5CCC(C4)O5)nc(-c4ccc(NC(=O)Nc5cccnc5)cc4)nc32)CC1` [Example 34, ethyl 4-[4-(8-oxa-3-azabicyclo[3.2.1]oct-3-yl)-6-{4-[(pyridin-3-ylcarbamoyl)amino]phenyl}-1H-pyrazolo[3,4-d]pyrimidin-1-yl]piperidine-1-carboxylate] are 7.60, 6.50, 5.58, 9.92 and > 9.10.
On the same counts, the results for `CN1CCN(c2ccc(NC(=O)Nc3ccc(-c4nc(N5CC6CCC(C5)O6)c5cnn(CCO)c5n4)cc3)cn2)CC1` [Example 205, 1-{4-[1-(2-hydroxyethyl)-4-(8-oxa-3-azabicyclo[3.2.1]oct-3-yl)-1H-pyrazolo[3,4-d]pyrimidin-6-yl]phenyl}-3-[6-(4-methylpiperazin-1-yl)pyridin-3-yl]urea] are 7.10, 6.69, 5.45, 8.77 and 7.05.
The matching figures for `CNC(=O)Nc1ccc(-c2nc(N3CC4CCC(C3)O4)c3cnn(C4CCN(C(=O)OC(C)C)CC4)c3n2)cc1` [Example 66, isopropyl 4-[6-{4-[(methylcarbamoyl)amino]phenyl}-4-(8-oxa-3-azabicyclo[3.2.1]oct-3-yl)-1H-pyrazolo[3,4-d]pyrimidin-1-yl]piperidine-1-carboxylate]: 7.08, 5.69, < 5.00, 9.66 and 8.22.
As for `CNC(=O)Nc1ccc(-c2nc(N3C[C@H]4C[C@@H]3CO4)c3cnn(CC(F)(F)F)c3n2)cc1` [Example 341, 1-methyl-3-(4-{4-[(1R,4R)-2-oxa-5-azabicyclo[2.2.1]hept-5-yl]-1-(2,2,2-trifluoroethyl)-1H-pyrazolo[3,4-d]pyrimidin-6-yl}phenyl)urea], the pIC50 with breast line MDA468 was 5.30; at PI3K [1] (setting [3]) it was 5.33; at PI3K [2] (setting [4]) it was < 5.00; against Human mTOR (FLAG-TOR) (setting [5]) it was 7.04; in the assay with prostate line LNCap (LNCaP), 5.60.
Take `CCOC(=O)Nc1ccc(-c2nc(N3CC4CCC(C3)O4)c3cnn(CCO)c3n2)cc1` [Example 208, ethyl {4-[1-(2-hydroxyethyl)-4-(8-oxa-3-azabicyclo[3.2.1]oct-3-yl)-1H-pyrazolo[3,4-d]pyrimidin-6-yl]phenyl}carbamate]: the negative logarithm of the IC50 (pIC50) with breast line MDA468 is 6.05; at PI3K [1] (setting [6]), 5.73; on PI3K [2] (setting [7]), < 5.00; at Human mTOR (FLAG-TOR) it was 8.09; with prostate line LNCap (LNCaP), 6.66.
On the same counts, the results for `CCOC(=O)N1CCC(n2ncc3c(N4CC5CCC(C4)O5)nc(-c4ccc(NC(=O)NC5CCN(C)CC5)cc4)nc32)CC1` [Example 36, ethyl 4-[6-(4-{[(1-methylpiperidin-4-yl)carbamoyl]amino}phenyl)-4-(8-oxa-3-azabicyclo[3.2.1]oct-3-yl)-1H-pyrazolo[3,4-d]pyrimidin-1-yl]piperidine-1-carboxylate] are 5.35, 5.21, 5.12, 7.59 and 5.92.
On the same counts, the results for `N#CCCn1ncc2c(N3CC4CCC(C3)O4)nc(-c3ccc(NC(=O)OCCO)cc3)nc21` [Example 213, 2-hydroxyethyl {4-[1-(2-cyanoethyl)-4-(8-oxa-3-azabicyclo[3.2.1]oct-3-yl)-1H-pyrazolo[3,4-d]pyrimidin-6-yl]phenyl}carbamate] are 6.00, 5.34, < 5.00, 8.90 and 6.82.
The matching figures for `CCn1ncc2c(N3CC4CCC(C3)O4)nc(-c3cccc(O)c3)nc21` [Example 75, 3-[1-ethyl-4-(8-oxa-3-azabicyclo[3.2.1]oct-3-yl)-1H-pyrazolo[3,4-d]pyrimidin-6-yl]phenol]: 5.89, 5.98, < 5.00, 7.57 and 6.46.
With `CN(C)c1cccc(OC(=O)Nc2ccc(-c3nc(N4CC5CCC(C4)O5)c4cnn(CC(F)(F)F)c4n3)cc2)c1` [Example 256, 3-(dimethylamino)phenyl {4-[4-(8-oxa-3-azabicyclo[3.2.1]oct-3-yl)-1-(2,2,2-trifluoroethyl)-1H-pyrazolo[3,4-d]pyrimidin-6-yl]phenyl}carbamate], the pIC50 in the assay on breast line MDA468 is 4.74; at PI3K [1], < 5.00; at PI3K [2] it was < 5.00; at Human mTOR (FLAG-TOR) it was 6.71; in the assay on prostate line LNCap, 5.46.
On to `CCn1ncc2c(N3CC4CCC(C3)O4)nc(-c3ccc(NC(=O)Nc4ccc(C#N)cc4)cc3)nc21` [Example 190, 1-(4-cyanophenyl)-3-{4-[1-ethyl-4-(8-oxa-3-azabicyclo[3.2.1]oct-3-yl)-1H-pyrazolo[3,4-d]pyrimidin-6-yl]phenyl}urea], for which the pIC50 with breast line MDA468 was 7.48; on PI3K [1] (setting [6]) it was 6.27; on PI3K [2] (setting [7]), 5.52; at Human mTOR (FLAG-TOR), 9.30; in the assay on prostate line LNCap (LNCaP), 8.40.
Regarding `Oc1ccc(Nc2nc(N3CC4CCC(C3)O4)c3sccc3n2)cc1` [Example 422, 4-{[4-(8-oxa-3-azabicyclo[3.2.1]oct-3-yl)thieno[3,2-d]pyrimidin-2-yl]amino}phenol], the negative logarithm of the IC50 (pIC50) is 4.51 with breast line MDA468; 5.35 at PI3K [1] (setting [3]); < 5.00 on PI3K [2] (setting [4]); 6.57 on Human mTOR (FLAG-TOR) (setting [5]); 5.14 in the assay with prostate line LNCap (LNCaP).
With `c1cc2cc(-c3nc(N4CC5CCC(C4)O5)c4cnn(C5CCC6(CC5)OCCO6)c4n3)ccc2[nH]1` [Example 388, 1-(1,4-dioxaspiro[4.5]dec-8-yl)-6-(1H-indol-5-yl)-4-(8-oxa-3-azabicyclo[3.2.1]oct-3-yl)-1H-pyrazolo[3,4-d]pyrimidine], the pIC50 was 5.70 in the assay with breast line MDA468; 4.98 at PI3K [1] (setting [3]); < 5.00 at PI3K [2] (setting [4]); 7.90 against Human mTOR (FLAG-TOR) (setting [5]); 6.48 in the assay on prostate line LNCap (LNCaP).
